ChEMBL document CHEMBL1201862, “PubChem BioAssay data set” (2004)
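Briefly, cells in 96-well plates were exposed to five compound concentrations for 48 h, and endpoints were estimated by linear interpolation. Abbreviation: GI50, concentration required for 50% inhibition of growth.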 Active and inactive are the calls of the source. Rule as the data show it: active = GI50 up to about 1.1 µM and inactive = higher.

Legend:
Assay in all cases: NCI-60 cell line screen, 48 h
[1] = test system: SNB-19
[2] = test system: MDA-N
[3] = test system: SR
[4] = test system: SF-268
[5] = test system: MCF7
[6] = test system: IGROV-1
[7] = test system: HCT-116
[8] = test system: UACC-257
[9] = test system: KM12
[10] = test system: TK-10
[11] = test system: SK-MEL-28
[12] = test system: RXF 393
[13] = test system: HL-60
[14] = test system: ACHN
[15] = test system: NCI-H226
[16] = test system: BT-549
[17] = test system: T47D
[18] = test system: LOX IMVI
[19] = test system: HCC 2998
[20] = test system: A498
[21] = test system: SN12C
[22] = test system: HT-29
[23] = test system: NCI-H522
[24] = test system: SK-MEL-5
[25] = test system: Malme-3M
[26] = test system: SK-OV-3
[27] = test system: NCI-H23
[28] = test system: HOP-62
[29] = test system: HCT-15
[30] = test system: EKVX
[31] = test system: RPMI-8226
[32] = test system: SF-295
[33] = test system: SF-539
[34] = test system: Hs-578T
[35] = test system: A549
[36] = test system: 786-0
[37] = test system: SK-MEL-2
[38] = test system: MDA-MB-231
[39] = test system: OVCAR-3
[40] = test system: NCI-H460
[41] = test system: U-251
[42] = test system: K562
[43] = test system: SNB-75
[44] = test system: SW-620
[45] = test system: CCRF-CEM
[46] = test system: MOLT-4
[47] = test system: MDA-MB-435
[48] = test system: UO-31
[49] = test system: NCI/ADR-RES
[50] = test system: PC-3
[51] = test system: DU-145
[52] = test system: OVCAR-8
[53] = test system: HOP-92
[54] = test system: UACC-62
[55] = test system: M14
[56] = test system: OVCAR-4
[57] = test system: COLO 205
[58] = test system: CAKI-1
[59] = test system: OVCAR-5
[60] = test system: DMS-114
[61] = test system: KM-20L2
[62] = test system: DMS-273
[63] = test system: DLD-1
[64] = test system: M19-MEL
[65] = test system: SNB-78
[66] = test system: HOP-18

Brc1cccc(/C=C/CN2CCN(CCOC(c3ccccc3)c3ccccc3)CC2)c1
GI50 [1]: 16.7 µM (inactive)
GI50 [2]: 16.7 µM (inactive)
GI50 [3]: 9.02 µM (inactive)
GI50 [4]: 16.4 µM (inactive)
GI50 [5]: 14.5 µM (inactive)
GI50 [6]: 15.9 µM (inactive)
GI50 [7]: 13.7 µM (inactive)
GI50 [8]: 17.9 µM (inactive)
GI50 [9]: 14.8 µM (inactive)
GI50 [10]: 19.3 µM (inactive)
GI50 [11]: 17.8 µM (inactive)
GI50 [12]: 11.6 µM (inactive)
GI50 [13]: 7.45 µM (inactive)
GI50 [14]: 17.5 µM (inactive)
GI50 [15]: 19 µM (inactive)
GI50 [16]: 16.5 µM (inactive)
GI50 [17]: 3.73 µM (inactive)
GI50 [18]: 14.5 µM (inactive)
GI50 [19]: 8.53 µM (inactive)
GI50 [20]: 17.5 µM (inactive)
GI50 [21]: 15 µM (inactive)
GI50 [22]: 6.22 µM (inactive)
GI50 [23]: 14.4 µM (inactive)
GI50 [24]: 15.1 µM (inactive)
GI50 [25]: 16.1 µM (inactive)
GI50 [26]: 17.6 µM (inactive)
GI50 [27]: 16.5 µM (inactive)
GI50 [28]: 15.9 µM (inactive)
GI50 [29]: 15.6 µM
GI50 [30]: 17.5 µM (inactive)
GI50 [31]: 4.08 µM (inactive)
GI50 [32]: 17.6 µM (inactive)
GI50 [33]: 15.7 µM (inactive)
GI50 [34]: 22.1 µM (inactive)
GI50 [35]: 15.5 µM (inactive)
GI50 [36]: 15.7 µM (inactive)
GI50 [37]: 17.8 µM (inactive)
GI50 [38]: 13.9 µM (inactive)
GI50 [39]: 15.4 µM (inactive)
GI50 [40]: 13.3 µM (inactive)
GI50 [41]: 13.6 µM (inactive)
GI50 [42]: 7.69 µM (inactive)
GI50 [43]: 6.08 µM (inactive)
GI50 [44]: 17.8 µM (inactive)
GI50 [45]: 11.1 µM (inactive)
GI50 [46]: 8.47 µM (inactive)
GI50 [47]: 12.6 µM (inactive)
GI50 [48]: 13.1 µM (inactive)
GI50 [49]: 14.7 µM (inactive)
GI50 [50]: 13.2 µM (inactive)
GI50 [51]: 13.6 µM (inactive)
GI50 [52]: 16.1 µM (inactive)
GI50 [53]: 6 µM (inactive)
GI50 [54]: 17.4 µM (inactive)
GI50 [55]: 13.2 µM (inactive)
GI50 [56]: 11.7 µM (inactive)
GI50 [57]: 14.2 µM (inactive)
GI50 [58]: 15.9 µM (inactive)
GI50 [59]: 16.2 µM (inactive)

COc1ccc(/C=c2\sc3n(c2=O)C(N)=C(C#N)C(c2ccc(OC)cc2)C=3c2nc3ccccc3[nH]2)cc1 (stereo not drawn)
GI50 [1]: > 100 µM (inactive)
GI50 [3]: 39.5 µM (inactive)
GI50 [4]: 42.1 µM (inactive)
GI50 [6]: 44.7 µM (inactive)
GI50 [7]: 27.2 µM (inactive)
GI50 [8]: 28.9 µM (inactive)
GI50 [9]: 14.2 µM (inactive)
GI50 [10]: 16.1 µM (inactive)
GI50 [11]: 18.5 µM (inactive)
GI50 [60]: 30.8 µM (inactive)
GI50 [13]: 41.2 µM (inactive)
GI50 [14]: 34.4 µM (inactive)
GI50 [15]: 27 µM (inactive)
GI50 [61]: 42.2 µM (inactive)
GI50 [18]: 18 µM (inactive)
GI50 [19]: 16.4 µM (inactive)
GI50 [20]: 29.6 µM (inactive)
GI50 [21]: 78.7 µM (inactive)
GI50 [23]: 45.7 µM (inactive)
GI50 [24]: 16.9 µM (inactive)
GI50 [25]: 22.6 µM (inactive)
GI50 [27]: 5.02 µM (inactive)
GI50 [28]: 38.7 µM (inactive)
GI50 [29]: 27.1 µM
GI50 [30]: 22.6 µM (inactive)
GI50 [31]: 55.6 µM (inactive)
GI50 [33]: > 10 µM (inactive)
GI50 [35]: 33.7 µM (inactive)
GI50 [36]: > 100 µM (inactive)
GI50 [37]: 28.6 µM (inactive)
GI50 [39]: 19.6 µM (inactive)
GI50 [40]: 18.6 µM (inactive)
GI50 [41]: 18 µM (inactive)
GI50 [42]: > 100 µM (inactive)
GI50 [62]: 33.4 µM (inactive)
GI50 [43]: 29.6 µM (inactive)
GI50 [44]: 27.7 µM (inactive)
GI50 [45]: 39.2 µM (inactive)
GI50 [46]: 29.1 µM (inactive)
GI50 [63]: > 10 µM (inactive)
GI50 [48]: > 100 µM (inactive)
GI50 [52]: > 10 µM (inactive)
GI50 [64]: 28.7 µM (inactive)
GI50 [53]: 12.2 µM (inactive)
GI50 [54]: 79.4 µM (inactive)
GI50 [55]: 77.1 µM (inactive)
GI50 [56]: > 100 µM (inactive)
GI50 [57]: 56.4 µM (inactive)
GI50 [58]: 21.4 µM (inactive)
GI50 [59]: 27.4 µM (inactive)

COc1cc(C)cc2c1[nH]c1ccccc12 [MURRAYAFOLINE A]
GI50 [1]: > 25 µM (inactive)
GI50 [10]: > 25 µM (inactive)
GI50 [12]: 9.16 µM (inactive)
GI50 [60]: 9.64 µM (inactive)
GI50 [65]: > 25 µM (inactive)
GI50 [28]: 6.53 µM (inactive)
GI50 [31]: 8.65 µM (inactive)
GI50 [35]: 11.5 µM (inactive)
GI50 [39]: 8.91 µM (inactive)
GI50 [42]: > 25 µM (inactive)
GI50 [52]: 7.33 µM (inactive)
GI50 [56]: > 25 µM (inactive)
GI50 [59]: 24.5 µM (inactive)

CCCCOCCOC1=C(Cl)C(=O)c2c(O)ccc(O)c2C1=O
GI50 [1]: 1.36 µM (inactive)
GI50 [2]: 0.272 µM (active)
GI50 [3]: 0.0995 µM (active)
GI50 [4]: 1.6 µM (inactive)
GI50 [5]: 0.285 µM (active)
GI50 [6]: 0.855 µM (active)
GI50 [7]: 0.261 µM (active)
GI50 [8]: 0.429 µM (active)
GI50 [9]: 1.83 µM (inactive)
GI50 [10]: 0.578 µM (active)
GI50 [11]: 0.562 µM (active)
GI50 [12]: 0.227 µM (active)
GI50 [13]: 0.0347 µM (active)
GI50 [14]: 0.321 µM (active)
GI50 [15]: 2.26 µM (inactive)
GI50 [16]: 0.175 µM (active)
GI50 [17]: 0.532 µM (active)
GI50 [18]: 0.439 µM (active)
GI50 [19]: 2.5 µM (inactive)
GI50 [20]: 1.82 µM (inactive)
GI50 [21]: 0.465 µM (active)
GI50 [22]: 0.689 µM (active)
GI50 [23]: 0.392 µM (active)
GI50 [24]: 0.733 µM (active)
GI50 [25]: 0.259 µM (active)
GI50 [26]: 2.98 µM (inactive)
GI50 [27]: 0.42 µM (active)
GI50 [28]: 1.17 µM (inactive)
GI50 [29]: 0.151 µM
GI50 [30]: 2.94 µM (inactive)
GI50 [31]: 0.255 µM (active)
GI50 [32]: 1.53 µM (inactive)
GI50 [33]: 0.993 µM (active)
GI50 [34]: 2.49 µM (inactive)
GI50 [35]: 2.11 µM (inactive)
GI50 [36]: 0.229 µM (active)
GI50 [37]: 1.37 µM (inactive)
GI50 [38]: 0.493 µM (active)
GI50 [39]: 0.547 µM (active)
GI50 [40]: 1.49 µM (inactive)
GI50 [41]: 1.32 µM (inactive)
GI50 [42]: 0.0356 µM (active)
GI50 [43]: 0.687 µM (active)
GI50 [44]: 0.188 µM (active)
GI50 [45]: 0.0274 µM (active)
GI50 [46]: 0.051 µM (active)
GI50 [47]: 0.325 µM (active)
GI50 [48]: 0.748 µM (active)
GI50 [49]: 0.614 µM (active)
GI50 [50]: 1.6 µM (inactive)
GI50 [51]: 1.66 µM (inactive)
GI50 [52]: 0.347 µM (active)
GI50 [53]: 0.288 µM (active)
GI50 [54]: 1.12 µM (active)
GI50 [55]: 0.217 µM (active)
GI50 [56]: 0.822 µM (active)
GI50 [57]: 0.194 µM (active)
GI50 [58]: 0.407 µM (active)
GI50 [59]: 1.37 µM (inactive)

O=C(NC(Cc1ccc(I)cc1)C(=O)O)c1cccc(Br)c1 (stereo not drawn)
GI50 [1]: 99.1 µM (inactive)
GI50 [4]: > 100 µM (inactive)
GI50 [5]: 38 µM (inactive)
GI50 [6]: > 100 µM (inactive)
GI50 [7]: > 100 µM (inactive)
GI50 [8]: > 100 µM (inactive)
GI50 [9]: 55.1 µM (inactive)
GI50 [11]: 49.8 µM (inactive)
GI50 [60]: 48 µM (inactive)
GI50 [13]: > 100 µM (inactive)
GI50 [15]: > 100 µM (inactive)
GI50 [65]: > 100 µM (inactive)
GI50 [61]: > 100 µM (inactive)
GI50 [18]: > 95.9 µM (inactive)
GI50 [19]: 22.4 µM (inactive)
GI50 [20]: > 100 µM (inactive)
GI50 [21]: > 100 µM (inactive)
GI50 [22]: > 100 µM (inactive)
GI50 [23]: > 61.1 µM (inactive)
GI50 [24]: > 100 µM (inactive)
GI50 [25]: 70.1 µM (inactive)
GI50 [26]: > 100 µM (inactive)
GI50 [27]: > 100 µM (inactive)
GI50 [28]: 67.3 µM (inactive)
GI50 [29]: > 100 µM
GI50 [30]: > 61.7 µM (inactive)
GI50 [31]: 47.8 µM (inactive)
GI50 [32]: > 100 µM (inactive)
GI50 [33]: 84.1 µM (inactive)
GI50 [66]: > 82.4 µM (inactive)
GI50 [35]: > 100 µM (inactive)
GI50 [37]: > 80.7 µM (inactive)
GI50 [39]: 54.6 µM (inactive)
GI50 [40]: 96.8 µM (inactive)
GI50 [41]: 78.3 µM (inactive)
GI50 [42]: 48.6 µM (inactive)
GI50 [62]: > 100 µM (inactive)
GI50 [43]: 39.2 µM (inactive)
GI50 [44]: > 100 µM (inactive)
GI50 [45]: 69.2 µM (inactive)
GI50 [46]: 33.7 µM (inactive)
GI50 [63]: > 100 µM (inactive)
GI50 [48]: > 100 µM (inactive)
GI50 [49]: 99.5 µM (inactive)
GI50 [52]: > 100 µM (inactive)
GI50 [64]: 56.2 µM (inactive)
GI50 [53]: 44.9 µM (inactive)
GI50 [54]: 50.6 µM (inactive)
GI50 [56]: > 92.9 µM (inactive)
GI50 [57]: > 100 µM (inactive)
GI50 [58]: > 100 µM (inactive)
GI50 [59]: > 100 µM (inactive)
